Data: ChEMBL document CHEMBL5728008, “Compound used as Bruton's tyrosine kinase inhibitor and preparation method and application thereof” (2020)

Target: Tyrosine-protein kinase BTK (Homo sapiens, UniProt Q06187)
Assay: In Vitro Assay for the Inhibition of BTK Kinase Activity: 1: Test Principle:Mobility-Shift Assay, which is microfluidic chip technology, applies the basic concept of capillary electrophoresis to microfluidic environments. The substrate used for the experiment is a polypeptide with a fluorescent label. Under the action of enzyme in the reaction system, the substrate is transformed into a product, and the charge the substrate carries also changes accordingly. The use of the charge difference between the substrate and the product involved in Mobility-Shift Assay achieves the separating of the two, and they are tested respectively.

Chain of Tyrosine-protein kinase BTK (Q06187 whole entry): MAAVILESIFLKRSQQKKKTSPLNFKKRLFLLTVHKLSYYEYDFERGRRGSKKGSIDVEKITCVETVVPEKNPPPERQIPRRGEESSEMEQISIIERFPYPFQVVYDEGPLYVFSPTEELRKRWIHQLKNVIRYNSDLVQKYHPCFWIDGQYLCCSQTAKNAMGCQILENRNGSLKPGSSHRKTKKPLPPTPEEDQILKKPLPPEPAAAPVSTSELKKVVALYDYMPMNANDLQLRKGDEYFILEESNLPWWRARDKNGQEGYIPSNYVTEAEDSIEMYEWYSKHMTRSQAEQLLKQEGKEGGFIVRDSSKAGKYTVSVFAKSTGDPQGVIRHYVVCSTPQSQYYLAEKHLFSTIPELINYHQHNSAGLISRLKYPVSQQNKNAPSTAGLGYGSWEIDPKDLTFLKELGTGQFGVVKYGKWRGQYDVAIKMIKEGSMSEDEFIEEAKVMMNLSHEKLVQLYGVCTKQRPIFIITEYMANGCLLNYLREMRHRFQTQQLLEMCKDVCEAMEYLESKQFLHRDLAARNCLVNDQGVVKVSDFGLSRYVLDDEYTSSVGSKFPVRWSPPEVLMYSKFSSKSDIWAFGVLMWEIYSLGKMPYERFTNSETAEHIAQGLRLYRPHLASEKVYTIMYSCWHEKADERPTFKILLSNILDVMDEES

## C=CC(=O)N1CC2CCCC2C1c1nc(-c2ccc(C(=O)Nc3ccccn3)cc2)c2c(N)nccn12 (stereo unspecified)
  IC50: 4.7 nM
